The source of these data is PubChem BioAssay (NCI).

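A five-concentration, 48-hour dose response in 96-well plates underlies each endpoint, interpolated linearly between surrounding concentrations. TGI marks complete inhibition of growth.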 Where only a bound is given, the exact number is not on record here.

Among the test systems are SK-MEL-28 melanoma; COLO 205 colon; NCI-H226 lung; SNB-19 CNS; UACC-257 melanoma; HOP-92 NSCLC; NCI-H460 lung; SF-268 CNS; 786-0 renal; OVCAR-5 ovarian; HT29 colon.
Common to all, as to assay: NCI anticancer screen, dose series, 48 h

`CC1(C)OC[C@@]2([C@@H]3CC[C@@H](C3)C2(C)C)N1O`: the TGI in the assay with SK-MEL-28 melanoma, with COLO 205 colon, with NCI-H226 lung, with SNB-19 CNS, with UACC-257 melanoma and in the assay with HOP-92 NSCLC was above 100 µM each time. Also, the TGI in the assay with NCI-H460 lung, in the assay on SF-268 CNS, in the assay with 786-0 renal, with OVCAR-5 ovarian and with HT29 colon was above 100 µM each time.
Take `CC1(C)OC2CN(C(=O)OCc3ccccc3)C(CO)C2O1` (centres undefined): the TGI in the assay with SK-MEL-28 melanoma, in the assay on COLO 205 colon, in the assay with NCI-H226 lung, in the assay on SNB-19 CNS, with UACC-257 melanoma and in the assay on HOP-92 NSCLC was above 100 µM in each case. The TGI in the assay on NCI-H460 lung, in the assay with SF-268 CNS, in the assay with 786-0 renal, in the assay with OVCAR-5 ovarian and with HT29 colon was above 100 µM throughout.
Regarding `CCOC(=O)C1(Cc2ccccc2)CCN(C(=O)c2ccccc2)C2C1C2(Cl)Cl` (centres undefined), the TGI in the assay on SK-MEL-28 melanoma was 51.6 µM; in the assay with COLO 205 colon it was 35.9 µM; with NCI-H226 lung, 63.4 µM; with SNB-19 CNS, above 100 µM; in the assay on UACC-257 melanoma it was 36.3 µM; in the assay with HOP-92 NSCLC, 55.6 µM. Besides, the TGI with NCI-H460 lung is 35.9 µM; in the assay on SF-268 CNS, 91.8 µM; in the assay on 786-0 renal, 44.2 µM; with OVCAR-5 ovarian it was 98.4 µM; with HT29 colon it was 34.8 µM.
Regarding `COC(=O)CC1(O)C(C=C(C)C)C(C(=O)OC)C(=O)C(C(=O)OC)C1C(=O)OC` (centres undefined), the TGI in the assay on SK-MEL-28 melanoma, in the assay on COLO 205 colon, in the assay with NCI-H226 lung, in the assay on SNB-19 CNS, with UACC-257 melanoma and with HOP-92 NSCLC was above 100 µM each time. Further, the TGI in the assay on NCI-H460 lung, in the assay on SF-268 CNS, with 786-0 renal, in the assay on OVCAR-5 ovarian and with HT29 colon was above 100 µM each time.
With `COc1ccc(C2c3cc4c(cc3OC(N3CCOCC3)C2C)OCO4)c(OC)c1` (centres undefined), the TGI was 29.8 µM in the assay with SK-MEL-28 melanoma; above 57.6 µM in the assay on COLO 205 colon; 14.4 µM with NCI-H226 lung; 28.9 µM in the assay with SNB-19 CNS; 85.1 µM with UACC-257 melanoma; 15.9 µM in the assay on HOP-92 NSCLC. Also, the TGI in the assay with NCI-H460 lung was 24.4 µM; in the assay with SF-268 CNS it was 53 µM; in the assay with 786-0 renal, 41.1 µM; in the assay on OVCAR-5 ovarian, 73.9 µM; in the assay with HT29 colon, 13.2 µM.
In the case of `c1ccc2c(Cc3c[nH]c4ccccc34)c[nH]c2c1`, the TGI with SK-MEL-28 melanoma is above 100 µM; in the assay with COLO 205 colon it was 27.8 µM; in the assay on NCI-H226 lung it was 22.5 µM; with SNB-19 CNS it was 44.4 µM; with UACC-257 melanoma it was 34.5 µM; in the assay on HOP-92 NSCLC, 35.6 µM. The TGI came out at 40.5 µM in the assay on NCI-H460 lung; 45.7 µM with SF-268 CNS; 33.6 µM in the assay with 786-0 renal; 29.4 µM in the assay on OVCAR-5 ovarian; 30.2 µM in the assay on HT29 colon.
Take `CC1(C)SC2C(NC(=O)Cc3ccccc3)C(=O)N2C1C(=O)O` (centres undefined): the TGI in the assay with SK-MEL-28 melanoma, with COLO 205 colon, in the assay with NCI-H226 lung, in the assay with SNB-19 CNS, in the assay with UACC-257 melanoma and with HOP-92 NSCLC was above 100 µM each time. Moreover, the TGI in the assay on NCI-H460 lung, with SF-268 CNS, with 786-0 renal, in the assay with OVCAR-5 ovarian and in the assay on HT29 colon was above 100 µM in each case.
As for `O=C(CN=C(CN(c1ccccc1)c1ccccc1)Oc1c([N+](=O)[O-])cc([N+](=O)[O-])cc1[N+](=O)[O-])N1CCNCC1`, the TGI in the assay on SK-MEL-28 melanoma, in the assay with COLO 205 colon, in the assay with NCI-H226 lung, in the assay with SNB-19 CNS, in the assay with UACC-257 melanoma and with HOP-92 NSCLC was above 100 µM throughout. In addition, the TGI in the assay with NCI-H460 lung, with SF-268 CNS, with 786-0 renal, with OVCAR-5 ovarian and in the assay on HT29 colon was above 100 µM throughout.
For `Cc1ccc(N2C(=O)CC(=O)N(NC(=O)C(C)Oc3ccccc3C)C2=S)cc1` (centres undefined), the TGI in the assay on SK-MEL-28 melanoma, with COLO 205 colon, with NCI-H226 lung, with SNB-19 CNS, in the assay on UACC-257 melanoma and in the assay with HOP-92 NSCLC was above 100 µM in each case. The TGI with NCI-H460 lung, in the assay with SF-268 CNS, in the assay with 786-0 renal, in the assay with OVCAR-5 ovarian and with HT29 colon was above 100 µM throughout.
Turning to `O=C(/C=C/c1ccc(Cl)c(Cl)c1)CCN1CCN(CCC(=O)/C=C/c2ccc(Cl)c(Cl)c2)CC1`, the TGI in the assay on SK-MEL-28 melanoma was 46.3 µM; in the assay with COLO 205 colon, 70.8 µM; in the assay on NCI-H226 lung, 72.8 µM; in the assay with UACC-257 melanoma it was above 100 µM; in the assay with HOP-92 NSCLC, 64.8 µM; in the assay on NCI-H460 lung, 38.5 µM. Moreover, the TGI with SF-268 CNS is above 100 µM; in the assay with 786-0 renal it was 21 µM; with OVCAR-5 ovarian, 39.9 µM; in the assay with HT29 colon, 46.8 µM.
